The text below walks through data of patent US10508111B2, “6-[5-amino-6-(2-ethoxyethoxy)-imidazo[4,5-B]pyridin-3-yl]-nicotinonitrile derivatives and their use as IRAK inhibitors” (GALAPAGOS NV, priority 2015, dated 2019).

Some results are limits rather than exact numbers.

The target in one test is T1, c-SRC (Homo sapiens, UniProt P12931).
T1 construct: purchased Carna Biosciences 08-173
The test is described as follows: Kinase selectivity profiling (focused panel), radioactive filter plate assay: c-SRC. Format: biochemical. Particulars: PolyGT substrate, 0.25 μM ATP, 60 min. The protocol: The purpose of this assay is to determine the activity and selectivity of a compound of the invention on a selected range of human kinases which may result in undesirable side-effects when inhibited (Dy & Adjei 2013; Force & Kolaja 2011).
The IC50 value for off-target kinases is determined in radioactive filter plate assays. The principle of the assays consists in the measurement of incorporated ^33P into a peptide substrate upon phosphorylation by the kinase enzyme using [γ-^33P]ATP and ATP. Unincorporated ^33P is removed by loading the samples on a filter plate (using a harvester, PerkinElmer) and 6 subsequent washing steps. Incorporated ^33P in the peptide substrate is measured by a scintillation counter (Topcount, PerkinElmer) after addition of MicroScint™-20 (PerkinElmer, 6013621) to the filter plates.
5 μL of a water dilution series of test compound (starting from 20 μM or 6.6 μM highest concentration), from a 100% DMSO stock solution, 1/5 dilution, is added to the wells (final DMSO concentration of 1% in reaction assay). Enzyme and peptide substrate are used at optimized concentrations (cf. Table VI). The enzyme and substrate are diluted in assay buffer to a total volume of 11 μL. The reaction is started by addition of 9 μL of ATP+[γ-^33P]ATP, diluted in the same buffer as enzyme and substrate. The mixture is incubated at 30° C. The reaction is terminated by adding 25 μL of 150 mM phosphoric acid. Samples are transferred to filter plates and incorporated radioactivity is measured using a scintillation counter.
The incubation time, assay buffer composition, and concentrations of ATP, enzyme and substrate are reported in Table VI for example kinase off-target assays.
10 μM staurosporine (1% DMSO) is used as positive control (100% inhibition); vehicle (water+1% DMSO) as negative control (0% inhibition).

In test [1] the test system is TNFα triggered IL-6 release in SW1353 cells. The test is described as follows: SW1353 cellular selectivity assay, TNFα trigger, IL-6 ELISA readout. The format is cell-based, human. The following applies: TNFα trigger 10 ng/mL; for IC50: Homo sapiens; for TNFα trigger IL-6 PIN at 20 μM: percent inhibition at 20 μM compound. The source says:
The aim of this assay is to evaluate the selectivity of compounds of the invention for the activated TLR/IRAK-4 pathway in an in vitro human cellular assay setting. SW1353 cells are from a chondrocytic cell line and are responsive to both the interleukin 1 (IL-1) and the TNFα cytokine triggers. Both cytokine triggers induce the expression of interleukin 6 (IL-6) and MMP13 by these cells. IL-6 and MMP13 releases are used as readouts in this assay and represent a measure for the level of inhibition of the TLR/IRAK-4 pathway by the tested compound.
SW1353 cells are cultured in DMEM supplemented with 10% FBS and 1% Penicillin/Streptomycin. Cells are incubated at 37° C. in a humidified atmosphere of 5% CO2 and subcultured twice a week. During subculturing, trypsin-EDTA is used to detach the cells, followed by a neutralization step with cell culture medium. After centrifugation (1,000 rpm during 5 min), the pellet is resuspended in cell culture medium and cells are counted using an automated cell counter (Invitrogen Countess™).
Cells are used at passage 16 and plated at a density of 15,000 cells per well in 120 μL cell culture medium in 96-well culture plates. Cells are allowed to attach during overnight incubation.
SW1353 cells are pre-incubated with test compound by addition of 15 μL of 10× concentrated compound solution for 2 h at 37° C. and 5% CO2. The compounds are tested at different concentrations and prepared by 3-fold serial dilutions from the 10 mM stock solution in DMSO followed by a 1/50 dilution step in cell culture medium. Final test concentrations in the assay start from 20 μM, with subsequent 3-fold serial dilutions with equal final DMSO concentrations of 0.2%. After the compound pre-incubation step, the SW1353 cells are triggered by addition of 15 μL of 10× concentrated IL-1f (Peprotech, 200-01B) or TNFα trigger (Peprotech, 300-01A) to the wells with final assay volume of 150 μL per well and final trigger concentration of 1 ng/mL and 10 ng/mL, respectively. Negative controls are adjusted with equal DMSO concentrations without trigger. The assay plates are then incubated in a humidified incubator at 37° C. and 5% CO2. Cell supernatants are harvested 24 h and 48 h later by transferring the cell medium into a V-bottom polypropylene 96-well plate and stored at −80° C. until ELISA readout.
The levels of secreted IL-6 in the cell supernatants are quantified in an enzyme-linked immunosorbent assay (ELISA). […] Luminescence of the converted substrate is measured with a Luminoskan™ Ascent luminometer.
All controls are measured within the linear range of the human IL-6 and MMP13 standard curve of the ELISA. […]

T1 sequence (P12931 whole entry): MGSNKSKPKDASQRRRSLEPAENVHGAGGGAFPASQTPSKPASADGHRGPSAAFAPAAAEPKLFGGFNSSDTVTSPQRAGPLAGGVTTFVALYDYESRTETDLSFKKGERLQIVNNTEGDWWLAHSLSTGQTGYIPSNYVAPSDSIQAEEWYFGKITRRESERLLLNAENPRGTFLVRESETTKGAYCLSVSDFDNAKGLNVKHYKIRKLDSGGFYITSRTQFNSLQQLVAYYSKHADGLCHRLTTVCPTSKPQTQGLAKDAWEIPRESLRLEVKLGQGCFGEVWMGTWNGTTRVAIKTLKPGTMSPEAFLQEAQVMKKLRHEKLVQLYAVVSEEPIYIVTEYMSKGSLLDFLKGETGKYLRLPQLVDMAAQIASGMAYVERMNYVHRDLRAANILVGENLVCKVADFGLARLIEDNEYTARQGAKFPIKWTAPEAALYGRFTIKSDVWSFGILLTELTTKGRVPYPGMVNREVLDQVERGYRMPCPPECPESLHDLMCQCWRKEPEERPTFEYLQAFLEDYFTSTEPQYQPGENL

Turning to `N#Cc1ccc(-n2cnc3cc(OCCOCCO)c(NC4CCOCC4)nc32)nc1` [Compound 1, 6-[6-[2-(2-hydroxy-ethoxy)-ethoxy]-5-(tetrahydro-pyran-4-ylamino)-imidazo[4,5-b]pyridin-3-yl]-nicotinonitrile], the IC50 at c-SRC was > 1.33 µM. For the same compound, in test [1], the IC50 is > 20 µM and the “TNFα trigger IL-6 PIN at 20 μM” value was “[54%]”.

As to `C[C@]1(O)CC[C@@H](Nc2nc3c(cc2OCCOCCO)ncn3-c2ccc(C#N)cn2)CC1` [Compound 12, 6-[6-[2-(2-hydroxyethoxy)ethoxy]-5-[((cis-1,4)-4-hydroxy-4-methylcyclohexyl)amino]imidazo[4,5-b]pyridin-3-yl]pyridine-3-carbonitrile], the figures for the IC50 (on c-SRC; in test [1]) were 0.477 µM and > 20 µM, respectively. Also, the “TNFα trigger IL-6 PIN at 20 μM” value in test [1] was “[22%]”.
